Test results reported in PMC8601423 (PLoS ONE, 2021).
Values joined by “and” are separate entries in the source; they are usually repeats but may differ in a detail not shown here. Identical values can stand only once.

Assays:
[1] = system: IL-6 mRNA, human coronary microvascular endothelial cells; format: cell-based
[2] = system: SARS CoV-2 S-protein (Wuhan-Hu-1 strain, spike trimer) expressing PsV, HEK293T cells stably expressing human ACE2; format: cell-based, SARS-CoV-2 (Wuhan-Hu-1 strain)
[3] = system: IL-1β mRNA, human coronary microvascular endothelial cells; format: cell-based
purified human ACE2-Fc = biological target: T1, purified human ACE2-Fc (Homo sapiens, UniProt Q9BYF1); experiment: biochemical; format: binding
T1 construct: purified recombinant human ACE2-Fc (Q18 –S740, peptidase domain) protein; purchased GenScript
T1 sequence (Q9BYF1 18-740): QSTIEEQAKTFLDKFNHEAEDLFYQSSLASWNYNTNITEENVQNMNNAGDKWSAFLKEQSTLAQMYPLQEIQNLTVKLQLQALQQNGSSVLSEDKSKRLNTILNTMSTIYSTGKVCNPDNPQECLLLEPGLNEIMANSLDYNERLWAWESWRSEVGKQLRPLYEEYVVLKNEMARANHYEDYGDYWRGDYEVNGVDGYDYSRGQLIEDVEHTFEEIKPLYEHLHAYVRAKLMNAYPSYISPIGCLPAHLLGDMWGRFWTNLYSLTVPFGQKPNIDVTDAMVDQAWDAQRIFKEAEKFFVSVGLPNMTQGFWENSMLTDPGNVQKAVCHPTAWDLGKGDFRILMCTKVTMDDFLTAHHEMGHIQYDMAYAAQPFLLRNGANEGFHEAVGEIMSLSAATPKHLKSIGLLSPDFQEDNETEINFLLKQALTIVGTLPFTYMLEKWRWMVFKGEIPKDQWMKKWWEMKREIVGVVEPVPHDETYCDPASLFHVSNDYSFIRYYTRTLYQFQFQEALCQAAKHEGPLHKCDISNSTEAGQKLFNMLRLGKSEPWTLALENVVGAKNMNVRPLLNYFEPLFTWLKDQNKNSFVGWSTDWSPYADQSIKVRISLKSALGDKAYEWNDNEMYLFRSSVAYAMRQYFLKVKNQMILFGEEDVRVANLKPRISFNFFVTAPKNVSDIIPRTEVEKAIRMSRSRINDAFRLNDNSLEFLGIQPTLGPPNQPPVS

[4] = system: MCP-1 mRNA, human coronary microvascular endothelial cells; format: cell-based
[5] = system: VCAM mRNA, human coronary microvascular endothelial cells; format: cell-based
[6] = system: SRBD internalisation in ACE2 expressing A549 cells; format: cell-based, human

| Compound | IL-6, MEAN [1] | IL-6 mRNA expression, peptide alone [1] | S1 induced IL-6 mRNA expression, peptide pre-treated [1] | inhibition of spike PsV cell entry (in words) ([2]; N = 3) | IL-1β mRNA expression, peptide alone [3] | S1 induced IL-1β mRNA expression, peptide pre-treated [3] | Kd (purified human ACE2-Fc) [nM] | MCP-1 mRNA expression, peptide alone [4] | S1 induced MCP-1 mRNA expression, peptide pre-treated [4] | S1 induced VCAM mRNA expression, peptide pre-treated [5] | VCAM mRNA expression, peptide alone [5] | inhibition of SRBD internalisation (in words) [6] | binding to ACE2 (in words) (purified human ACE2-Fc) | inhibition of spike PsV cell entry by soluble ACE2 (in words) [2] |
| --- | --- | --- | --- | --- | --- | --- | --- | --- | --- | --- | --- | --- | --- | --- |
| CC(=O)N[C@@H](CO)C(=O)N[C@@H](CCCCN)C(=O)N[C@H](C(=O)NCC(=O)NCC(=O)N[C@@H](CC(N)=O)C(=O)N[C@@H](Cc1ccc(O)cc1)C(=O)N[C@@H](CC(N)=O)C(=O)N[C@@H](Cc1ccc(O)cc1)C(=O)N[C@@H](CC(C)C)C(=O)N[C@@H](Cc1ccc(O)cc1)C(=O)N[C@@H](CCCNC(=N)N)C(=O)N[C@@H](CC(C)C)C(=O)N[C@@H](Cc1ccccc1)C(=O)N[C@@H](CCCNC(=N)N)C(=O)N[C@@H](CCCCN)C(N)=O)C(C)C [RBM1] | 0.7896 and 1.445 | did not mimic S1 protein-induced inflammation | did not attenuate the S1 induced inflammatory response | did not inhibit PsV cell entry | did not mimic S1 protein-induced inflammation | did not attenuate the S1 induced inflammatory response | 207 | did not mimic S1 protein-induced inflammation | did not attenuate the S1 induced inflammatory response | did not attenuate the S1 induced inflammatory response | did not mimic S1 protein-induced inflammation | marked, yet non-significant reduction | – | – |
| Ac-NYGLQGSPFGYQETPYPFCNFVQYG-NH2 [RBM2A-Sc] | 0.966 and 1.58 | – | – | – | – | – | – | – | – | – | – | did not significantly inhibit SRBD-mediated internalisation | appeared to bind to ACE2 in a dose-dependent manner (Fig 4C) saturation of ACE2 binding was not achieved | – |
| soluble ACE2 protein | – | – | – | – | – | – | – | – | – | – | – | – | – | completely blocked spike PsV cell entry |
